# Measured values from patent US10710978B2, “STK4 inhibitors for treatment of hematologic malignancies” (Dana-Farber Cancer Institute, Inc., priority 2015, dated 2020).
# Read-outs that look alike come from different tables or passages of the source.
# Legend:
# Experiment in all cases: KiNativ assay
# Type in all cases: binding
# [1] = biological target: PI4KB (Homo sapiens (Human), UniProt Q9UBF8); conditions: H929 live cell
# Description: (§1) Biochemical IC50s of the compounds of the present disclosure against various kinases were measured in a KiNativ assay. Compounds were screened in duplicate at 10 μM in H929 live cell. IC50 was measured via Mass spectroscopy (MS).
# [2] = system: AMPKa1, AMPKa2; conditions: H929 live cell; for % inhibition: 10 μM, range class
# Description: as §1
# [3] = biological target: GSK3A (Homo sapiens (Human), UniProt P49840); conditions: H929 live cell
# Description: as §1
# [4] = biological target: PIK3CB (Homo sapiens (Human), UniProt P42338); conditions: H929 live cell
# Description: as §1
# [5] = biological target: NEK1 (Homo sapiens (Human), UniProt Q96PY6); conditions: H929 live cell
# Description: as §1
# [6] = system: FYN, SRC, YES; conditions: H929 live cell; for % inhibition: 10 μM, range class
# Description: as §1
# [7] = system: MAP2K1, MAP2K2; conditions: 10 μM, H929 live cell; range class
# Description: as §1
# [8] = biological target: MLKL (Homo sapiens (Human), UniProt Q8NB16); conditions: H929 live cell
# Description: as §1
# [9] = biological target: PKR (Homo sapiens (Human), UniProt P19525); conditions: H929 live cell
# Description: as §1
# [10] = biological target: PIK3C3 (Homo sapiens (Human), UniProt Q8NEB9); conditions: H929 live cell
# Description: as §1
# [11] = biological target: PKD2 (Homo sapiens (Human), UniProt Q9BZL6); conditions: H929 live cell
# Description: as §1
# [12] = biological target: SMG1 (Homo sapiens (Human), UniProt Q96Q15); conditions: H929 live cell
# Description: as §1
# [13] = biological target: IRAK4 (Homo sapiens (Human), UniProt Q9NWZ3); conditions: H929 live cell
# Description: as §1
# [14] = system: MARK2, MARK3; conditions: H929 live cell; for % inhibition: 10 μM, range class
# Description: as §1
# [15] = biological target: MST3 (Homo sapiens (Human), UniProt Q9Y6E0); conditions: H929 live cell
# Description: as §1
# [16] = biological target: Erk2 (Homo sapiens (Human), UniProt P28482); conditions: H929 live cell
# Description: as §1
# [17] = biological target: LATS1 (Homo sapiens (Human), UniProt O95835); conditions: H929 live cell
# Description: as §1
# [18] = biological target: CaMKK2 (Homo sapiens (Human), UniProt Q96RR4); conditions: H929 live cell
# Description: as §1
# [19] = system: RSK1 domain1, RSK2 domain1, RSK3 domain1; conditions: H929 live cell; for % inhibition: 10 μM, range class
# Description: as §1
# [20] = biological target: KHS1 (Homo sapiens (Human), UniProt Q9Y4K4); conditions: H929 live cell
# Description: as §1
# [21] = biological target: JAK3 domain2 (Homo sapiens (Human), UniProt P52333); conditions: H929 live cell
# Description: as §1
# [22] = biological target: MSK1 domain1 (Homo sapiens (Human), UniProt O75582); conditions: H929 live cell
# Description: as §1
# [23] = biological target: NEK7 (Homo sapiens (Human), UniProt Q8TDX7); conditions: H929 live cell
# Description: as §1
# [24] = biological target: AKT1 (Homo sapiens (Human), UniProt P31749); conditions: H929 live cell
# Description: as §1
# [25] = biological target: TLK1 (Homo sapiens (Human), UniProt Q9UKI8); conditions: H929 live cell
# Description: as §1
# [26] = biological target: MAP2K5 (Homo sapiens (Human), UniProt Q13163); conditions: H929 live cell
# Description: as §1
# [27] = system: PI4KA, PI4KAP2; conditions: H929 live cell; for % inhibition: 10 μM, range class
# Description: as §1
# [28] = biological target: IRAK1 (Homo sapiens (Human), UniProt P51617); conditions: H929 live cell
# Description: as §1
# [29] = biological target: OSR1 (Homo sapiens (Human), UniProt O95747); conditions: H929 live cell
# Description: as §1
# [30] = biological target: p70S6Kb (Homo sapiens (Human), UniProt Q9UBS0); conditions: H929 live cell
# Description: as §1
# [31] = biological target: PHKg2 (Homo sapiens (Human), UniProt P15735); conditions: H929 live cell
# Description: as §1
# [32] = system: p38d, p38g; conditions: H929 live cell; for % inhibition: 10 μM, range class
# Description: as §1
# [33] = biological target: RSK1 domain1 (Homo sapiens (Human), UniProt Q15418); conditions: H929 live cell
# Description: as §1
# [34] = biological target: CDK5 (Homo sapiens (Human), UniProt Q00535); conditions: H929 live cell
# Description: as §1
# [35] = range class, read-out: % inhibition
# CDK5, sequence (Q00535 whole entry): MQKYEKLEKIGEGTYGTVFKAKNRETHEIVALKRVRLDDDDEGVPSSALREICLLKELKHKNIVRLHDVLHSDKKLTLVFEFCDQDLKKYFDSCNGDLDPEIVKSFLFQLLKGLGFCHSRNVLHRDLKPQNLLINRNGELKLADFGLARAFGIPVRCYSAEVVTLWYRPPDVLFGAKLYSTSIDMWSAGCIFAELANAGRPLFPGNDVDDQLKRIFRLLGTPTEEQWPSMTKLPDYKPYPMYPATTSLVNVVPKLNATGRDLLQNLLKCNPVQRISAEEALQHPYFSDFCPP
# SMG1, sequence (Q96Q15 whole entry): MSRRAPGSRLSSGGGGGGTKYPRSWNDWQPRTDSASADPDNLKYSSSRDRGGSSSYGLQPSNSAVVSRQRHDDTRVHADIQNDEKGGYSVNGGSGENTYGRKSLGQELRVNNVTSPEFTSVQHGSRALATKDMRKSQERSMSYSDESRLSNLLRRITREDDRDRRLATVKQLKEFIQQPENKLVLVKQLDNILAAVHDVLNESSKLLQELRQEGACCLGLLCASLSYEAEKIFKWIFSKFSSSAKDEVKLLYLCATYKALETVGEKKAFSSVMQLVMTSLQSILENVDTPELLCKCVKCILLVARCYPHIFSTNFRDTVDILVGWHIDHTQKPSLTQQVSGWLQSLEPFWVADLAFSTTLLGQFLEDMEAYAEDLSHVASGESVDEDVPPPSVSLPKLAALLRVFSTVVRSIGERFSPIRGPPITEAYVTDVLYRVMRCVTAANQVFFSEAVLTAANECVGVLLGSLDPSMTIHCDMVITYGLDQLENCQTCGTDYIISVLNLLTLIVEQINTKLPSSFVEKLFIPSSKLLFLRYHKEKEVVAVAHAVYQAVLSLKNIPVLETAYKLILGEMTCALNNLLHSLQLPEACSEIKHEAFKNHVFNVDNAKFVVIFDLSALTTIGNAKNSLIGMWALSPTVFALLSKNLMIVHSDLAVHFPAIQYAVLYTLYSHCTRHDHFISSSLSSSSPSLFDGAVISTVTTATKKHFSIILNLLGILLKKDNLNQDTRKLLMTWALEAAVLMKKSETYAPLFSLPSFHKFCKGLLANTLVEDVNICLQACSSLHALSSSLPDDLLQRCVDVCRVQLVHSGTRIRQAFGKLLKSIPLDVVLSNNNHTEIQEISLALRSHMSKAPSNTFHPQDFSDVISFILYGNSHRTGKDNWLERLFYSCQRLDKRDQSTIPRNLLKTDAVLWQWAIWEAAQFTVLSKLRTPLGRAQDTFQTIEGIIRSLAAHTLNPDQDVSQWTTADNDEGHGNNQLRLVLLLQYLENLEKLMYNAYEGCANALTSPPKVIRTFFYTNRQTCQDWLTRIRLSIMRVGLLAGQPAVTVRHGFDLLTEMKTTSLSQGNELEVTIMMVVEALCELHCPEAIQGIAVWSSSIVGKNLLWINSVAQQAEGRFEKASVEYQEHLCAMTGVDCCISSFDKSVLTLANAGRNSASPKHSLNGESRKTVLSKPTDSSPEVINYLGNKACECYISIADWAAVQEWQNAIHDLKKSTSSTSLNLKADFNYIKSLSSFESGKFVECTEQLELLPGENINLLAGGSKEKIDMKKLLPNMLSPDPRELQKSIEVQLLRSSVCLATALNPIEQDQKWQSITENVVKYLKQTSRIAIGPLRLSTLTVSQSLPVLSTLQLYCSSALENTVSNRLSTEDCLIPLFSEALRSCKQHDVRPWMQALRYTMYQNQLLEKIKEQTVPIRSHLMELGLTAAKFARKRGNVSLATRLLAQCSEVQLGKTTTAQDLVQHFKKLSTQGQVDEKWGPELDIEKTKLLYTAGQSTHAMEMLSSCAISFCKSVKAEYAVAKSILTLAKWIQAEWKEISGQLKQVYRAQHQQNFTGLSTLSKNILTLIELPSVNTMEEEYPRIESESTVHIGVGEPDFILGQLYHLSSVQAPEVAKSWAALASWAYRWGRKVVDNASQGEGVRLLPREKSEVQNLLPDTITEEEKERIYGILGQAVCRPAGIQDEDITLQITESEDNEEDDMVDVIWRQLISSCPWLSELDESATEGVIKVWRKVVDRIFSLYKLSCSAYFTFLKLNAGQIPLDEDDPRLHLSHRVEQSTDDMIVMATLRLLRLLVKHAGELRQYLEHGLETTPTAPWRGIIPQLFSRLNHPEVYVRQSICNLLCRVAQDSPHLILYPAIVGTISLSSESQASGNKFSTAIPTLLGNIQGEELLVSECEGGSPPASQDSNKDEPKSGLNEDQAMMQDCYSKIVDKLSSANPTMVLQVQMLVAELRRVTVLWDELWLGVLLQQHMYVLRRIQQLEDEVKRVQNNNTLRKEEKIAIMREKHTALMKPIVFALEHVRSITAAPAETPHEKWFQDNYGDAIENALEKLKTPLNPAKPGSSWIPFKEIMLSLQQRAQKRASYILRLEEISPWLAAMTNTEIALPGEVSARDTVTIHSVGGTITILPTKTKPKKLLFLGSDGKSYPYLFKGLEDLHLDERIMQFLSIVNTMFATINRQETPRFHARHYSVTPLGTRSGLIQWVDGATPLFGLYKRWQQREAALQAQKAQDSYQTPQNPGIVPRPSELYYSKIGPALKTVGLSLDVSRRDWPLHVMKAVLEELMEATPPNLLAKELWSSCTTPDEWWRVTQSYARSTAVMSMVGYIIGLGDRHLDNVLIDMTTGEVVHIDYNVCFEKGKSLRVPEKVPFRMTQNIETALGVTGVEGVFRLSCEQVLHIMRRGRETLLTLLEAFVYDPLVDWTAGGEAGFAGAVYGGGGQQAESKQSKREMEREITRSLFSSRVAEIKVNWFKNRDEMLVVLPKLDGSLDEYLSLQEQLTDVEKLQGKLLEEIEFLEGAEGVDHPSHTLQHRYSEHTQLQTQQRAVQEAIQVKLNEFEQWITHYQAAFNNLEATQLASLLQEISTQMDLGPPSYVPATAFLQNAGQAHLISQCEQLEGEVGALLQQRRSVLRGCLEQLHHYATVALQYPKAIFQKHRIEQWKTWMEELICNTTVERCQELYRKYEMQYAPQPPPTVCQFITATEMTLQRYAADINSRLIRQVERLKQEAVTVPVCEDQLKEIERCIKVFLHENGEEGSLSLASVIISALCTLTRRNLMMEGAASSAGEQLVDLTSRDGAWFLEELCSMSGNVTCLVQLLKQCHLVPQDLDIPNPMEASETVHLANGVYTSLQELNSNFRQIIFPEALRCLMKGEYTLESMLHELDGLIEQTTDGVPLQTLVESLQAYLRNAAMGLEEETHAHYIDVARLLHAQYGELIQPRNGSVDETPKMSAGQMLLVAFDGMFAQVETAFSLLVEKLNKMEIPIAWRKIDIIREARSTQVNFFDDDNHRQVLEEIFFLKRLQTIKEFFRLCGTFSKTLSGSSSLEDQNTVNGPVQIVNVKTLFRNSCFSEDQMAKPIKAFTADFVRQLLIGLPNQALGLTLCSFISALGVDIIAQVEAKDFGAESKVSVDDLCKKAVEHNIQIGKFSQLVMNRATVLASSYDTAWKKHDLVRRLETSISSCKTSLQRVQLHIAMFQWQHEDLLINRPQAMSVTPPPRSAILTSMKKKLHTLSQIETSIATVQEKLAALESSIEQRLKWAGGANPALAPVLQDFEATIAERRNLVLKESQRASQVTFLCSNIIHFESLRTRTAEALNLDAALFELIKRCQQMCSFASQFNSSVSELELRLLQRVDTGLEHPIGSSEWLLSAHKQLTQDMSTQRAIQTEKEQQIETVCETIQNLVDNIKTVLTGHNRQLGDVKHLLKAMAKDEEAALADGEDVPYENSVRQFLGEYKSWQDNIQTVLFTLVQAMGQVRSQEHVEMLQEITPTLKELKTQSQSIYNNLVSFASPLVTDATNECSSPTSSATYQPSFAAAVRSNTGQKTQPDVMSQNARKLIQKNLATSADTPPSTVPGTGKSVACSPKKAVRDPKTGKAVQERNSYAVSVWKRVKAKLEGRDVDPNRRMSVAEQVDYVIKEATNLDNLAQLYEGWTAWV
# RSK1 domain1, sequence (Q15418 whole entry, the tested form may be a part): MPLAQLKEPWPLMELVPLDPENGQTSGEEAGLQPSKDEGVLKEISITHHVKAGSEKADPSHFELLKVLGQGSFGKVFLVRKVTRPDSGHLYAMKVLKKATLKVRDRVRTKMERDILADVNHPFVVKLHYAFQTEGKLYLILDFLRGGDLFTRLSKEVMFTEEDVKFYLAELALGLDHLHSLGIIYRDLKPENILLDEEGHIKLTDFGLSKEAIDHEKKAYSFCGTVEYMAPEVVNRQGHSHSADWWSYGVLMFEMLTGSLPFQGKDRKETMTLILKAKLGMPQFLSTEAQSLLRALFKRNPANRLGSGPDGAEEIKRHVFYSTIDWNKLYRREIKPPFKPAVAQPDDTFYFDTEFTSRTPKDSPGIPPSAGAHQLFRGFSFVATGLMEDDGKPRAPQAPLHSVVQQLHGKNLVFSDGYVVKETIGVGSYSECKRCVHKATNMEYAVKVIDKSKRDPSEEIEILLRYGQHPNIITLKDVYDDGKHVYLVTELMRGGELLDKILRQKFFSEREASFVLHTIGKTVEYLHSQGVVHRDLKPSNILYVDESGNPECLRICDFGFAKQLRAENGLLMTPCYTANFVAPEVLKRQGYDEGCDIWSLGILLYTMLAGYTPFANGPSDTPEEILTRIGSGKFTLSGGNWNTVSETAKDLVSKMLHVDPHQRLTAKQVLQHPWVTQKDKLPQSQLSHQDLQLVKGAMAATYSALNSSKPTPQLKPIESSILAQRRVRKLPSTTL
# NEK7, sequence (Q8TDX7 whole entry): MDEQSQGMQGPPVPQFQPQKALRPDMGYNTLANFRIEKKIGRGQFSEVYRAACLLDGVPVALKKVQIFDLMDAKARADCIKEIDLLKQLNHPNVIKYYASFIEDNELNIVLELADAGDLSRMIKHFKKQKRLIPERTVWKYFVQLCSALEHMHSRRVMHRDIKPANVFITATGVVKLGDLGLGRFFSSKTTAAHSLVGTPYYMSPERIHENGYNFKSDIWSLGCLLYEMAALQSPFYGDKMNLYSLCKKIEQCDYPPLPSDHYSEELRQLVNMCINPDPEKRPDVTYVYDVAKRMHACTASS
compound,measurement,setting,value
"Nc1ncc(-c2ccc(NS(=O)(=O)C3CC3)cc2F)cc1-c1ccc2c(c1)CCNC2=O [Compound I-51, N-(4-(6-amino-5-(1-oxo-1,2,3,4-tetrahydroisoquinolin-6-yl)pyridin-3-yl)-3-fluorophenyl) cyclopropanesulfonamide]",inhibition at 10 µM,[1]; [35],0%
same,inhibition at 10 µM,[1]; read-out: inhibition (10 μM),13%
same,% inhibition,[2],0.0%
same,inhibition (10 μM),[2],−20.5%
same,inhibition at 10 µM,[3]; [35],75 to 90%
same,inhibition at 10 µM,[3]; read-out: inhibition (10 μM),85.2%
same,inhibition at 10 µM,[4]; [35],0%
same,inhibition at 10 µM,[4]; read-out: inhibition (10 μM),7.2%
same,inhibition at 10 µM,[5]; [35],0%
same,inhibition at 10 µM,[5]; read-out: inhibition (10 μM),30.2%
same,% inhibition,[6],0.0%
same,inhibition (10 μM),[6],−36.4%
same,% inhibition,[7],0.0%
same,inhibition at 10 µM,[8]; [35],50 to 75%
same,inhibition at 10 µM,[8]; read-out: inhibition (10 μM),51.4%
same,inhibition at 10 µM,[9]; [35],0%
same,inhibition at 10 µM,[9]; read-out: inhibition (10 μM),3.8%
same,inhibition at 10 µM,[10]; [35],0%
same,inhibition at 10 µM,[10]; read-out: inhibition (10 μM),-13.2%
same,inhibition at 10 µM,[11]; [35],50 to 75%
same,inhibition at 10 µM,[11]; read-out: inhibition (10 μM),73.2%
same,inhibition at 10 µM,[12]; [35],50 to 75%
same,inhibition at 10 µM,[12]; read-out: inhibition (10 μM),55.8%
same,inhibition at 10 µM,[13]; [35],0%
same,inhibition at 10 µM,[13]; read-out: inhibition (10 μM),16.4%
same,% inhibition,[14],0.0%
same,inhibition (10 μM),[14],14.9%
same,inhibition at 10 µM,[15]; [35],50 to 75%
same,inhibition at 10 µM,[15]; read-out: inhibition (10 μM),53.3%
same,inhibition at 10 µM,[16]; [35],0%
same,inhibition at 10 µM,[16]; read-out: inhibition (10 μM),31.8%
same,inhibition at 10 µM,[17]; [35],0%
same,inhibition at 10 µM,[17]; read-out: inhibition (10 μM),3.9%
same,inhibition at 10 µM,[18]; [35],75 to 90%
same,inhibition at 10 µM,[18]; read-out: inhibition (10 μM),78.5%
same,% inhibition,[19],0.0%
same,inhibition (10 μM),[19],25.8%
same,inhibition at 10 µM,[20]; [35],50 to 75%
same,inhibition at 10 µM,[20]; read-out: inhibition (10 μM),72.7%
same,inhibition at 10 µM,[21]; [35],0%
same,inhibition at 10 µM,[21]; read-out: inhibition (10 μM),13.4%
same,inhibition at 10 µM,[22]; [35],0%
same,inhibition at 10 µM,[22]; read-out: inhibition (10 μM),11.4%
same,inhibition at 10 µM,[23]; [35],0%
same,inhibition at 10 µM,[23]; read-out: inhibition (10 μM),-50.3%
same,inhibition at 10 µM,[24]; [35],0%
same,inhibition at 10 µM,[24]; read-out: inhibition (10 μM),-15.2%
same,inhibition at 10 µM,[25]; [35],0%
same,inhibition at 10 µM,[25]; read-out: inhibition (10 μM),-11.8%
same,inhibition at 10 µM,[26]; [35],0%
same,inhibition at 10 µM,[26]; read-out: inhibition (10 μM),-4%
same,% inhibition,[27],0.0%
same,inhibition (10 μM),[27],0.1%
same,inhibition at 10 µM,[28]; [35],50 to 75%
same,inhibition at 10 µM,[28]; read-out: inhibition (10 μM),65%
same,inhibition at 10 µM,[29]; [35],0%
same,inhibition at 10 µM,[29]; read-out: inhibition (10 μM),8.8%
same,inhibition at 10 µM,[30]; [35],0%
same,inhibition at 10 µM,[30]; read-out: inhibition (10 μM),5.5%
same,inhibition at 10 µM,[31]; [35],0%
same,inhibition at 10 µM,[31]; read-out: inhibition (10 μM),-45.4%
same,% inhibition,[32],0.0%
same,inhibition (10 μM),[32],2.3%
same,inhibition at 10 µM,[33]; [35],0%
same,inhibition at 10 µM,[33]; read-out: inhibition (10 μM),5.4%
same,inhibition at 10 µM,[34]; [35],35 to 40%
same,inhibition at 10 µM,[34]; read-out: inhibition (10 μM),37.2%
"Nc1ncc(-c2ccc(NS(=O)(=O)C3CC3)cc2OC2CCCCC2)cc1-c1ccc2c(c1)CCNC2=O [Compound I-65, N-(4-(6-amino-5-(1-oxo-1,2,3,4-tetrahydroisoquinolin-6-yl)pyridin-3-yl)-3-(cyclohexyloxy)phenyl) cyclopropanesulfonamide]",inhibition at 10 µM,[1]; [35],0%
same,inhibition at 10 µM,[1]; read-out: inhibition (10 μM),8.6%
same,% inhibition,[2],35-40%
same,inhibition (10 μM),[2],39.0%
same,inhibition at 10 µM,[3]; [35],75 to 90%
same,inhibition at 10 µM,[3]; read-out: inhibition (10 μM),86%
same,inhibition at 10 µM,[4]; [35],0%
same,inhibition at 10 µM,[4]; read-out: inhibition (10 μM),14.6%
same,inhibition at 10 µM,[5]; [35],0%
same,inhibition at 10 µM,[5]; read-out: inhibition (10 μM),9.3%
same,% inhibition,[6],0.0%
same,inhibition (10 μM),[6],−8.4%
same,% inhibition,[7],0.0%
same,inhibition at 10 µM,[8]; [35],0%
same,inhibition at 10 µM,[8]; read-out: inhibition (10 μM),0.2%
same,inhibition at 10 µM,[9]; [35],0%
same,inhibition at 10 µM,[9]; read-out: inhibition (10 μM),-7.6%
same,inhibition at 10 µM,[10]; [35],0%
same,inhibition at 10 µM,[10]; read-out: inhibition (10 μM),-15%
same,inhibition at 10 µM,[11]; [35],0%
same,inhibition at 10 µM,[11]; read-out: inhibition (10 μM),-33.4%
same,inhibition at 10 µM,[12]; [35],50 to 75%
same,inhibition at 10 µM,[12]; read-out: inhibition (10 μM),68.8%
same,inhibition at 10 µM,[13]; [35],0%
same,inhibition at 10 µM,[13]; read-out: inhibition (10 μM),32.9%
same,% inhibition,[14],0.0%
same,inhibition (10 μM),[14],−17.2%
same,inhibition at 10 µM,[15]; [35],0%
same,inhibition at 10 µM,[15]; read-out: inhibition (10 μM),31.5%
same,inhibition at 10 µM,[16]; [35],0%
same,inhibition at 10 µM,[16]; read-out: inhibition (10 μM),-29.6%
same,inhibition at 10 µM,[17]; [35],0%
same,inhibition at 10 µM,[17]; read-out: inhibition (10 μM),33.8%
same,inhibition at 10 µM,[18]; [35],75 to 90%
same,inhibition at 10 µM,[18]; read-out: inhibition (10 μM),85.6%
same,% inhibition,[19],50-75%
same,inhibition (10 μM),[19],68.4%
same,inhibition at 10 µM,[20]; [35],50 to 75%
same,inhibition at 10 µM,[20]; read-out: inhibition (10 μM),73.3%
same,inhibition at 10 µM,[21]; [35],50 to 75%
same,inhibition at 10 µM,[21]; read-out: inhibition (10 μM),52.1%
same,inhibition at 10 µM,[22]; [35],0%
same,inhibition at 10 µM,[22]; read-out: inhibition (10 μM),-52.5%
same,inhibition at 10 µM,[23]; [35],0%
same,inhibition at 10 µM,[23]; read-out: inhibition (10 μM),-80%
same,inhibition at 10 µM,[24]; [35],0%
same,inhibition at 10 µM,[24]; read-out: inhibition (10 μM),1.6%
same,inhibition at 10 µM,[25]; [35],0%
same,inhibition at 10 µM,[25]; read-out: inhibition (10 μM),-1.2%
same,inhibition at 10 µM,[26]; [35],0%
same,inhibition at 10 µM,[26]; read-out: inhibition (10 μM),15%
same,% inhibition,[27],0.0%
same,inhibition (10 μM),[27],−2.9%
same,inhibition at 10 µM,[28]; [35],0%
same,inhibition at 10 µM,[28]; read-out: inhibition (10 μM),27.8%
same,inhibition at 10 µM,[29]; [35],0%
same,inhibition at 10 µM,[29]; read-out: inhibition (10 μM),26.8%
same,inhibition at 10 µM,[30]; [35],0%
same,inhibition at 10 µM,[30]; read-out: inhibition (10 μM),32%
same,inhibition at 10 µM,[31]; [35],0%
same,inhibition at 10 µM,[31]; read-out: inhibition (10 μM),-64%
same,% inhibition,[32],0.0%
same,inhibition (10 μM),[32],−8.5%
same,inhibition at 10 µM,[33]; [35],50 to 75%
same,inhibition at 10 µM,[33]; read-out: inhibition (10 μM),59.9%
same,inhibition at 10 µM,[34]; [35],0%
same,inhibition at 10 µM,[34]; read-out: inhibition (10 μM),4.9%
